This is an account of results in ChEMBL document CHEMBL5236621, “Synthesis and biological evaluation of N-(benzene sulfonyl)acetamide derivatives as anti-inflammatory and analgesic agents with COX-2/5-LOX/TRPV1 multifunctional inhibitory activity” (Bioorg Med Chem Lett, 2023).

The structures appear in SMILES notation. A value given as a limit tells only on which side of the number the result lay.

Series [1] addresses T1, Polyunsaturated fatty acid 5-lipoxygenase (Homo sapiens, UniProt P09917).
T1 sequence (P09917 whole entry): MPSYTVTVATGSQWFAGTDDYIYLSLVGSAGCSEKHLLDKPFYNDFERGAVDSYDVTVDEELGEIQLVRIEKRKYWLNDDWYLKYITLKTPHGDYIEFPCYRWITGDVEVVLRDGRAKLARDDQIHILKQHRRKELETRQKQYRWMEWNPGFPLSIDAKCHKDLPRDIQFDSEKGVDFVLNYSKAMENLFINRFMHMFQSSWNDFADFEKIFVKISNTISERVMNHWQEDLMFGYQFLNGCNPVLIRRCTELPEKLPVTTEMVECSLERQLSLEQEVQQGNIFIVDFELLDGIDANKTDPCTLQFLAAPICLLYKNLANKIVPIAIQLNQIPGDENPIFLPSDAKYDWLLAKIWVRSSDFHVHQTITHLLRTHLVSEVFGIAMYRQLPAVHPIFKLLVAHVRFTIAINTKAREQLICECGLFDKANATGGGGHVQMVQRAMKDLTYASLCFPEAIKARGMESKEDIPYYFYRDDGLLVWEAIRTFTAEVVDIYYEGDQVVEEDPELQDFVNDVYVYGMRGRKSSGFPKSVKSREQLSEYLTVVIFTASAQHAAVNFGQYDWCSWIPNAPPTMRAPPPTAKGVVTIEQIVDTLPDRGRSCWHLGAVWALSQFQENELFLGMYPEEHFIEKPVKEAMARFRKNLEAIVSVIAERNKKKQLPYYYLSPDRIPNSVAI
As to the kind of experiment: Inhibition of 5-LOX (unknown origin).

Series [2] has as its target Transient receptor potential cation channel subfamily V member 1 (Homo sapiens, UniProt Q8NER1). Put plainly: Inhibition of TRPV1 (unknown origin).
Series [3] concerns the target Prostaglandin G/H synthase 2.
Series [4] in a line: Cmax in Sprague-Dawley rat at 10 mg/kg, IG. As to conditions: in vivo, po. Details: dose 10 mg/kg, route ig. The series is classed as ADME, organism-based.
A short description of series [5]: Tmax in Sprague-Dawley rat at 10 mg/kg, IG. Format: ADME, organism-based. The note with it: in vivo, po.
The nature of series [6]: Apparent clearance in Sprague-Dawley rat at 1 mg/kg, iv. As to conditions: in vivo. The series is classed as ADME, organism-based.
Series [7] in a line: Bioavailability in Sprague-Dawley rat at 1 mg/kg, iv. The series is classed as ADME, organism-based. As to conditions: in vivo.
Series [8] is filed under the species Mus musculus. Put plainly: Analgesic activity in formalin-induced mouse pain model assessed as reduction in immediate response by measuring licking time. Format: functional.
The species named for series [9] is Mus musculus. Put plainly: Analgesic activity in formalin-induced mouse pain model assessed as time consumed for nociceptive behavior by measuring licking time. Format: functional.
For series [10], the system named is Mus musculus. Put plainly: Antiinflammatory activity against capsaicin-induced mouse ear edema model assessed as decrease in ear thickness at 20 mg/kg relative to control. The series is classed as functional.

Transient receptor potential cation channel subfamily V member 1, sequence (Q8NER1 whole entry): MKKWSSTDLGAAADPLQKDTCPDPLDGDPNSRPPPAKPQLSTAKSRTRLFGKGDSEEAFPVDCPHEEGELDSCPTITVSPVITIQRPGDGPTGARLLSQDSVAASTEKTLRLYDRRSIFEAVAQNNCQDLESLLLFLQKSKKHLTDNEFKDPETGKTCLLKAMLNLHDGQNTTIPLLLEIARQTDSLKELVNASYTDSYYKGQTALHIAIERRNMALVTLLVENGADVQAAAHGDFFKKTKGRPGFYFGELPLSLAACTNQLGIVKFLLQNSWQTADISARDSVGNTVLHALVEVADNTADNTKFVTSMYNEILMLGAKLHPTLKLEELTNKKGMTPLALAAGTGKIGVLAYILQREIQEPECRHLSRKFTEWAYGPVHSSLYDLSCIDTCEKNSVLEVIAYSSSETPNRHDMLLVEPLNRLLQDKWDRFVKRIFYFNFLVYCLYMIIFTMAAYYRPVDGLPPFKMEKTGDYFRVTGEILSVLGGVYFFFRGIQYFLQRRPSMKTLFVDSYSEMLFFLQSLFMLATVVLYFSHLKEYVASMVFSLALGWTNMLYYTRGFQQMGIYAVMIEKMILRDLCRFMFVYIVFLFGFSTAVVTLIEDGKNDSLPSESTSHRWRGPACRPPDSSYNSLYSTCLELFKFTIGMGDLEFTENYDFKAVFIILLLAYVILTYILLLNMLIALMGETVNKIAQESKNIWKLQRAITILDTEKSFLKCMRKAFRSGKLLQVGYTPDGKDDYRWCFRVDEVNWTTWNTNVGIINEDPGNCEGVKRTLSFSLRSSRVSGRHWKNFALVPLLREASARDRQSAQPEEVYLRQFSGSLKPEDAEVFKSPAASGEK

By IC50 is commonly meant the concentration at which inhibition is half-maximal. Low readings indicate inhibition by little substance, high ones a need for much substance. Regarding `Cc1ccc(-c2cc(C(F)(F)F)nn2-c2ccc(S(=O)(=O)NC(=O)CCCCC3CCSS3)cc2)cc1` (stereo unspecified), the IC50 was 1420 nM in series [1], above 10000 nM in series [2] and 370 nM in series [3].

Take `Cc1ccc(-c2cc(C(F)(F)F)nn2-c2ccc(S(=O)(=O)NC(=O)C(C)c3ccc(CC(C)C)cc3)cc2)cc1` (stereo unspecified): the IC50 in [1] was found to be 520 nM; in [2], 1030 nM; in series [3], 25 nM.

Regarding `Cc1ccc(-c2cc(C(F)(F)F)nn2-c2ccc(S(=O)(=O)NC(=O)c3ccccc3)cc2)cc1`, the IC50 amounted to 120 nM in series [1] and 76 nM in series [3].

As usually defined, the Cmax is the highest concentration seen after dosing. In general, Tmax refers to the time at which the peak concentration occurs. As usually defined, the bioavailability is the share of a dose that reaches the circulation, judged against a reference dose that is usually intravenous. In [4], `COc1cc(C(=O)[N-]S(=O)(=O)c2ccc(-n3nc(C(F)(F)F)cc3-c3ccc(C)cc3)cc2)ccc1[O-].[Na+].[Na+]` had a Cmax of 5810 ng/mL. Further, the IC50 in series [1] came out at 460 nM; in series [3], 11 nM. In addition, in [5], the Tmax is 4.5 h. For the same compound, the clearance in series [6] is 3.24 mL/min/kg. Besides, the bioavailability in series [7] amounted to 96.8%. The Time stood at 0 min in series [8] and 85.5 s in [9].

As for `COc1cc(/C=C/C(=O)[N-]S(=O)(=O)c2ccc(-n3nc(C(F)(F)F)cc3-c3ccc(C)cc3)cc2)ccc1[O-].[Na+].[Na+]`, the IC50 in series [1] was 310 nM; in [2] it was 140 nM; in [3] it was 23 nM. For the same compound, in series [6], the clearance is 8.64 mL/min/kg. In series [7], this compound returned a bioavailability of 13.3%.

On to `CCOC(=O)NS(=O)(=O)c1ccc(-n2nc(C(F)(F)F)cc2-c2ccc(C)cc2)cc1`, for which the IC50 in [1] turned out to be 920 nM; in series [3], 35 nM.

As a reminder, the inhibition in vivo is the drop in the measured response relative to a control, in per cent. For the compound `Cc1ccc(-c2cc(C(F)(F)F)nn2-c2ccc(S(N)(=O)=O)cc2)cc1` [CELECOXIB], the IC50 in series [1] and in [2] was above 10000 nM throughout. For the same compound, the inhibition in vivo at 20 mg/kg in series [10] worked out at 48.8%.
